Measured values reported in patent US11162944B2, “Compositions and methods” (priority 2015, dated 2021).
Where two headings read alike, the source gives them in different places. Marks after values point to notes of the source that are not given here.

Tests used:
[1] = tested on: biomarker (antibody) in serum samples from patients with symptoms of tuberculosis; format: binding, human
wild-type BMDCs = assay: IL-6 secretion by bone marrow-derived dendritic cells, cytokine-specific ELISA; format: cell-based, mice; conditions: antigens at 100 μg/ml coated on plate, ISO as solvent, FIG. 1
Procedure: The concentrations of cytokines in the cell-free medium from stimulation of bone marrow-derived dendritic cells were determined using standard cytokine-specific ELISA. BMDCs were generated from mice, by flushing out the femurs of mice into complete medium and pipetting vigorously to make a single-cell suspension. The glycolipids were coated to the bottom of 96 micro-well plates (100 μg/ml). BMDCs were added, and after 6 or 48 hours of incubation the supernatants were harvested.
The first experiment was the IL-6 secretion by wild-type BMDCs from mice using compounds B, D, C and H (shown below) as antigens at 100 μg/ml, and isopropyl alcohol (ISO) as a solvent. Commercial trehalose-6,6-dimycolate (TDM), lipopolysaccharides (LPS), and trehalose-6,6-dibehenate (TDB) were used as a controls.

Structure (SMILES): CCCCCCCCCCCCCCCCCCCCCCCC[C@@H](C(=O)OC[C@H]1O[C@H](OC)[C@@H](O)[C@@H]1O)[C@H](O)CCCCCCCCCCCCCCCCC[C@@H]1C[C@@H]1CCCCCCCCCCCCCCCC[C@@H](OC)[C@@H](C)CCCCCCCCCCCCCCCCCC [Antigen B]
- ELISA absorbance at 492 nm ([1]; serum sample 1 TB+): 0.48*
- ELISA absorbance at 492 nm ([1]; serum sample 2 TB+): 0.54*
- ELISA absorbance at 492 nm ([1]; serum sample 3 TB+): 1.10*
- ELISA absorbance at 492 nm ([1]; serum sample 4 TB+): 1.00*
- ELISA absorbance at 492 nm ([1]; serum sample 5 TB+): 0.45*
- ELISA absorbance at 492 nm ([1]; serum sample 6 TB+): 0.97*
- ELISA absorbance at 492 nm ([1]; serum sample 7 TB+): 0.87*
- ELISA absorbance at 492 nm ([1]; serum sample 8 TB+): 0.97*
- ELISA absorbance at 492 nm ([1]; serum sample 9 TB+): 0.62*
- ELISA absorbance at 492 nm ([1]; serum sample 10 TB−): 0.56*
- ELISA absorbance at 492 nm ([1]; serum sample 11 TB−): 0.64*
- ELISA absorbance at 492 nm ([1]; serum sample 12 TB−): 0.44
- ELISA absorbance at 492 nm ([1]; serum sample 13 TB−): 0.56*
- ELISA absorbance at 492 nm ([1]; serum sample 14 TB−): 0.91*
- ELISA absorbance at 492 nm ([1]; serum sample 15 TB−): 0.53*
- ELISA absorbance at 492 nm ([1]; serum sample 16 TB−): 0.52*
- ELISA absorbance at 492 nm ([1]; serum sample 17 TB−): 0.87*
- ELISA absorbance at 492 nm ([1]; serum sample 18 TB−): 0.44
- ELISA absorbance at 492 nm ([1]; serum sample 19 TB−): 0.53*
- ELISA absorbance at 492 nm ([1]; serum sample 20 TB−): 0.63*
- ELISA absorbance at 492 nm ([1]; serum sample 21 TB−): 0.42
- ELISA absorbance at 492 nm ([1]; serum sample 22 TB−): 0.33
- ELISA absorbance at 492 nm ([1]; serum sample 23 TB−): 0.48*
- ELISA absorbance at 492 nm ([1]; serum sample 24 TB−): 0.81*
- ELISA absorbance at 492 nm ([1]; serum sample 25 TB−): 0.23
- ELISA absorbance at 492 nm ([1]; serum sample 26 TB−): 0.64*
- ELISA absorbance at 492 nm ([1]; serum sample 27 TB−): 0.60*
- ELISA absorbance at 492 nm ([1]; serum sample 28 TB−): 0.42
- ELISA absorbance at 492 nm ([1]; serum sample 29 TB−): 0.39
- ELISA absorbance at 492 nm ([1]; serum sample 30 TB−): 0.41
- ELISA absorbance at 492 nm ([1]; serum sample 31 TB−): 0.37
- ELISA absorbance at 492 nm ([1]; serum sample 32 TB−): 0.68*
- ELISA absorbance at 492 nm ([1]; serum sample 33 TB−): 0.36
- ELISA absorbance at 492 nm ([1]; serum sample 34 TB−): 0.47*
- ELISA absorbance at 492 nm ([1]; serum sample 35 TB−): 0.38
- ELISA absorbance at 492 nm ([1]; serum sample 36 TB−): 0.28
- ELISA absorbance at 492 nm ([1]; serum sample 37 TB−): 0.40
- ELISA absorbance at 492 nm ([1]; serum sample 38 TB−): 0.44
- ELISA absorbance at 492 nm ([1]; serum sample 39 TB−): 0.31
- ELISA absorbance at 492 nm ([1]; serum sample 40 TB−): 0.28
- ELISA absorbance at 492 nm ([1]; serum sample 41 TB−): 0.51*
- ELISA absorbance at 492 nm ([1]; serum sample 42 TB−): 0.49*
- ELISA absorbance at 492 nm ([1]; serum sample 43 TB−): 0.28
- ELISA absorbance at 492 nm ([1]; serum sample 44 TB−): 0.60*
- ELISA absorbance at 492 nm ([1]; serum sample 45 TB−): 0.34
- ELISA absorbance at 492 nm ([1]; serum sample 46 TB−): 0.27
- ELISA absorbance at 492 nm ([1]; serum sample 47 TB−): 0.35
- ELISA absorbance at 492 nm ([1]; serum sample 48 TB−): 0.29
- ELISA absorbance at 492 nm ([1]; serum sample 49 TB−): 0.47*
- ELISA absorbance at 492 nm ([1]; serum sample 50 TB−): 0.31
- ELISA absorbance at 492 nm ([1]; serum sample 51 TB−): 0.22
- ELISA absorbance at 492 nm ([1]; serum sample 52 TB−): 0.28
- ELISA absorbance at 492 nm ([1]; serum sample 53 TB−): 0.24
- ELISA absorbance at 492 nm ([1]; serum sample 54 TB−): 0.25
- ELISA absorbance at 492 nm ([1]; serum sample 55 TB−): 0.27
- ELISA absorbance at 492 nm ([1]; serum sample 56 TB−): 0.42
- ELISA absorbance at 492 nm ([1]; serum sample 57 TB−): 0.40
- ELISA absorbance at 492 nm ([1]; serum sample 58 TB−): 0.32
- ELISA absorbance at 492 nm ([1]; serum sample 59 TB−): 0.30
- ELISA absorbance at 492 nm ([1]; serum sample 60 TB−): 0.36
- ELISA absorbance at 492 nm ([1]; serum sample 61 TB−): 0.36
- ELISA absorbance at 492 nm ([1]; serum sample 62 TB−): 0.26
- ELISA absorbance at 492 nm ([1]; serum sample 63 TB−): 0.21
- ELISA absorbance at 492 nm ([1]; serum sample 64 TB−): 2.33*
- IL-6 secretion by wild-type BMDCs (wild-type BMDCs): good level of stimulation

Structure (SMILES): CCCCCCCCCCCCCCCCCCCCCC[C@@H](C(=O)OC[C@H]1O[C@H](OC)[C@@H](O)[C@@H]1O)[C@H](O)CCCCCCCCCCCCCCC[C@@H]1C[C@@H]1CCCCCCCCCCCCCCCCCCC(=O)C(C)CCCCCCCCCCCCCCCCCC (stereo partly shown) [Antigen C]
- ELISA absorbance at 492 nm ([1]; serum sample 1 TB+): 0.33*
- ELISA absorbance at 492 nm ([1]; serum sample 2 TB+): 0.26*
- ELISA absorbance at 492 nm ([1]; serum sample 3 TB+): 0.44*
- ELISA absorbance at 492 nm ([1]; serum sample 4 TB+): 0.48*
- ELISA absorbance at 492 nm ([1]; serum sample 5 TB+): 0.40*
- ELISA absorbance at 492 nm ([1]; serum sample 6 TB+): 0.39*
- ELISA absorbance at 492 nm ([1]; serum sample 7 TB+): 1.37*
- ELISA absorbance at 492 nm ([1]; serum sample 8 TB+): 0.46*
- ELISA absorbance at 492 nm ([1]; serum sample 9 TB+): 0.35*
- ELISA absorbance at 492 nm ([1]; serum sample 10 TB−): 0.22
- ELISA absorbance at 492 nm ([1]; serum sample 11 TB−): 0.20
- ELISA absorbance at 492 nm ([1]; serum sample 12 TB−): 0.18
- ELISA absorbance at 492 nm ([1]; serum sample 13 TB−): 0.24
- ELISA absorbance at 492 nm ([1]; serum sample 14 TB−): 0.56*
- ELISA absorbance at 492 nm ([1]; serum sample 15 TB−): 0.22
- ELISA absorbance at 492 nm ([1]; serum sample 16 TB−): 0.30*
- ELISA absorbance at 492 nm ([1]; serum sample 17 TB−): 0.57*
- ELISA absorbance at 492 nm ([1]; serum sample 18 TB−): 0.32*
- ELISA absorbance at 492 nm ([1]; serum sample 19 TB−): 0.20
- ELISA absorbance at 492 nm ([1]; serum sample 20 TB−): 0.41*
- ELISA absorbance at 492 nm ([1]; serum sample 21 TB−): 0.41*
- ELISA absorbance at 492 nm ([1]; serum sample 22 TB−): 0.31*
- ELISA absorbance at 492 nm ([1]; serum sample 23 TB−): 0.27*
- ELISA absorbance at 492 nm ([1]; serum sample 24 TB−): 0.53*
- ELISA absorbance at 492 nm ([1]; serum sample 25 TB−): 0.24
- ELISA absorbance at 492 nm ([1]; serum sample 26 TB−): 0.90*
- ELISA absorbance at 492 nm ([1]; serum sample 27 TB−): 0.46*
- ELISA absorbance at 492 nm ([1]; serum sample 28 TB−): 0.42*
- ELISA absorbance at 492 nm ([1]; serum sample 29 TB−): 0.38*
- ELISA absorbance at 492 nm ([1]; serum sample 30 TB−): 0.39*
- ELISA absorbance at 492 nm ([1]; serum sample 31 TB−): 0.51*
- ELISA absorbance at 492 nm ([1]; serum sample 32 TB−): 1.01*
- ELISA absorbance at 492 nm ([1]; serum sample 33 TB−): 0.33*
- ELISA absorbance at 492 nm ([1]; serum sample 34 TB−): 0.52*
- ELISA absorbance at 492 nm ([1]; serum sample 35 TB−): 0.55*
- ELISA absorbance at 492 nm ([1]; serum sample 36 TB−): 0.25
- ELISA absorbance at 492 nm ([1]; serum sample 37 TB−): 0.43*
- ELISA absorbance at 492 nm ([1]; serum sample 38 TB−): 0.43*
- ELISA absorbance at 492 nm ([1]; serum sample 39 TB−): 0.34*
- ELISA absorbance at 492 nm ([1]; serum sample 40 TB−): 0.26*
- ELISA absorbance at 492 nm ([1]; serum sample 41 TB−): 0.44*
- ELISA absorbance at 492 nm ([1]; serum sample 42 TB−): 0.42*
- ELISA absorbance at 492 nm ([1]; serum sample 43 TB−): 0.32*
- ELISA absorbance at 492 nm ([1]; serum sample 44 TB−): 1.32*
- ELISA absorbance at 492 nm ([1]; serum sample 45 TB−): 0.49*
- ELISA absorbance at 492 nm ([1]; serum sample 46 TB−): 0.28*
- ELISA absorbance at 492 nm ([1]; serum sample 47 TB−): 0.56*
- ELISA absorbance at 492 nm ([1]; serum sample 48 TB−): 0.55*
- ELISA absorbance at 492 nm ([1]; serum sample 49 TB−): 0.79*
- ELISA absorbance at 492 nm ([1]; serum sample 50 TB−): 0.38*
- ELISA absorbance at 492 nm ([1]; serum sample 51 TB−): 0.18
- ELISA absorbance at 492 nm ([1]; serum sample 52 TB−): 0.32*
- ELISA absorbance at 492 nm ([1]; serum sample 53 TB−): 0.21
- ELISA absorbance at 492 nm ([1]; serum sample 54 TB−): 0.26*
- ELISA absorbance at 492 nm ([1]; serum sample 55 TB−): 0.31*
- ELISA absorbance at 492 nm ([1]; serum sample 56 TB−): 0.90*
- ELISA absorbance at 492 nm ([1]; serum sample 57 TB−): 0.55*
- ELISA absorbance at 492 nm ([1]; serum sample 58 TB−): 0.44*
- ELISA absorbance at 492 nm ([1]; serum sample 59 TB−): 0.65*
- ELISA absorbance at 492 nm ([1]; serum sample 60 TB−): 0.62*
- ELISA absorbance at 492 nm ([1]; serum sample 61 TB−): 0.76*
- ELISA absorbance at 492 nm ([1]; serum sample 62 TB−): 0.19
- ELISA absorbance at 492 nm ([1]; serum sample 63 TB−): 0.26*
- ELISA absorbance at 492 nm ([1]; serum sample 64 TB−): 0.37*
- IL-6 secretion by wild-type BMDCs (wild-type BMDCs): no significant stimulation
